In patent publication US20060211575A1, “CONTROL FOR PLANT AND PLANT PRODUCT PATHOGENS” (W. NEUDORFF GMBH KG, priority 2005, published 2006):

Experiments:
Format in all cases: in vivo
[1] = test system: rust (Cronartium ribicola); test: Field test of betaines to control rust on black currants; conditions: 0.10% ai, black currant, resprayed every 7 to 10 days
Text: The purpose of this test was to evaluate 6 betaines for controlling rust (Cronartium ribicola) on black currant. Following formation of compositions of Coco betaine, C16 betaine, C18:1 betaine, Coco amidopropyl betaine, C18:1 amidopropyl betaine, and Coco sulfo betaine having varying betaine concentrations (using the commercially available forms of the betaines as discussed herein and a water solvent), and a copper octanoate standard (formed from a commercially available form entitled “Soap Shield” from Gardens Alive, Ind., USA), the compositions/solution were sprayed to run off onto eight-year-old black currants. Every treatment had nine plants, and the plants were resprayed every 7 to 10 days.

[2] = test system: powdery mildew (Sphaerotheca fuliginea); test: Greenhouse test of betaines for controlling powdery mildew on dandelion
Protocol: The purpose of this test was to evaluate the control of powdery mildew (Sphaerotheca fuliginea) on dandelion (Taraxacum officinale). Compositions of C12 betaine, Coco betaine, C16 betaine, C18:1 betaine, Coco amidopropyl betaine, C18:1 amidopropyl betaine, and Coco sulfo betaine were formed using the commercially available forms of the betaines as disclosed herein. Additionally, a sulfur standard was prepared using a commercially available form of sulfur (Red Ball EM-53) from International Chem. Inc., USA. For each treatment, twelve 20 cm diameter dandelions were used, and at the start of the test, all of the leaves were trimmed off of the plants. The test evaluated disease development on fully formed leaves. Each composition was sprayed to run off the plants, and resprayed 3 times every 7 days. The plants were also reinoculated by placing diseased dandelions amongst the test plants.

[3] = test system: rose blackspot (Diplocarpon rosae); test: Field test of betaines to control blackspot on Altissimo roses; conditions: 0.2%
Text: The purpose of this test was to evaluate various betaines for controlling rose blackspot (Diplocarpon rosae) on Altissimo roses under field conditions. Following formation of compositions of cetyl betaine, cocobetaine, and coco amidopropyl betaine using the commercially available forms of the betaines as disclosed herein as well as formation of a standard 0.2% sulfur solution, the compositions/solution were sprayed to run off onto mature Altissimo rose plants. Nine plants were used in each treatment, and the plants were resprayed every 7 to 10 days for over a 100 day period.
Table 1, below, illustrates the results obtained from treatments of cetyl betaine at various concentrations ranging from about 0.020% ai to 0.100% ai, as well as cocobetaine at a 0.05% ai concentration and coco amiodopropyl betaine at a 0.10% ai concentration.

Compound	Rust Sori Per 9 Plants [1]	Leaf Area Colonized by Powdery Mildew (%) ([2]; 0.1% ai)	Leaflets with Blackspot (%) ([3]; 75 DAT)	Leaflets with Blackspot (%) ([3]; 102 DAT)	Leaf Area Colonized by Powdery Mildew (%) ([2]; 0.2% ai)
CCCCCCCC/C=C\CCCCCCCC(=O)NCCC[N+](C)(C)CC(=O)[O-] [C18:1 amidopropyl betaine, oleamidopropyl betaine]	2121	0.9	–	–	–
CCCCCCCC/C=C\CCCCCCCC[N+](C)(C)CC(=O)[O-] [C18:1 betaine, oleyl betaine]	550	2.3	–	–	–
Copper octanoate [reference compound]	135	–	–	–	–
S1SSSSSSS1 [Sulfur]	–	–	0.8	1.5	0.0
